The results in this text go back to patent US20250059198A1, “BRM DEGRADING COMPOUNDS AND ASSOCIATED METHODS OF USE” (Arvinas Operations, Inc., priority 2021, published 2025).

The target in this assay is T1, BRM (Homo sapiens, UniProt P51531).
T1 construct: Western Blot Screen of BRM Degradation in SW1573 Cells; endogenous in cells; host or cells: SW1573 cells
In words: BRM degradation (Dmax and DC50) in SW1573 cells, Western blot screen / In-Cell Western screen. It is filed as cell-based. Particulars: overnight (18-20 hours) treatment; for Dmax: read-out: Dmax (%)** (% degraded). The gist of the method:
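SW1573 cells were treated with compound for 18–20 h (final 0.1% DMSO). BRM was quantified either by Western blot of RIPA lysates or by fixed-cell In-Cell Western (LI-COR, 800/680 nm), each normalised to alpha-tubulin, giving Dmax and DC50.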

T1 sequence (P51531 whole entry): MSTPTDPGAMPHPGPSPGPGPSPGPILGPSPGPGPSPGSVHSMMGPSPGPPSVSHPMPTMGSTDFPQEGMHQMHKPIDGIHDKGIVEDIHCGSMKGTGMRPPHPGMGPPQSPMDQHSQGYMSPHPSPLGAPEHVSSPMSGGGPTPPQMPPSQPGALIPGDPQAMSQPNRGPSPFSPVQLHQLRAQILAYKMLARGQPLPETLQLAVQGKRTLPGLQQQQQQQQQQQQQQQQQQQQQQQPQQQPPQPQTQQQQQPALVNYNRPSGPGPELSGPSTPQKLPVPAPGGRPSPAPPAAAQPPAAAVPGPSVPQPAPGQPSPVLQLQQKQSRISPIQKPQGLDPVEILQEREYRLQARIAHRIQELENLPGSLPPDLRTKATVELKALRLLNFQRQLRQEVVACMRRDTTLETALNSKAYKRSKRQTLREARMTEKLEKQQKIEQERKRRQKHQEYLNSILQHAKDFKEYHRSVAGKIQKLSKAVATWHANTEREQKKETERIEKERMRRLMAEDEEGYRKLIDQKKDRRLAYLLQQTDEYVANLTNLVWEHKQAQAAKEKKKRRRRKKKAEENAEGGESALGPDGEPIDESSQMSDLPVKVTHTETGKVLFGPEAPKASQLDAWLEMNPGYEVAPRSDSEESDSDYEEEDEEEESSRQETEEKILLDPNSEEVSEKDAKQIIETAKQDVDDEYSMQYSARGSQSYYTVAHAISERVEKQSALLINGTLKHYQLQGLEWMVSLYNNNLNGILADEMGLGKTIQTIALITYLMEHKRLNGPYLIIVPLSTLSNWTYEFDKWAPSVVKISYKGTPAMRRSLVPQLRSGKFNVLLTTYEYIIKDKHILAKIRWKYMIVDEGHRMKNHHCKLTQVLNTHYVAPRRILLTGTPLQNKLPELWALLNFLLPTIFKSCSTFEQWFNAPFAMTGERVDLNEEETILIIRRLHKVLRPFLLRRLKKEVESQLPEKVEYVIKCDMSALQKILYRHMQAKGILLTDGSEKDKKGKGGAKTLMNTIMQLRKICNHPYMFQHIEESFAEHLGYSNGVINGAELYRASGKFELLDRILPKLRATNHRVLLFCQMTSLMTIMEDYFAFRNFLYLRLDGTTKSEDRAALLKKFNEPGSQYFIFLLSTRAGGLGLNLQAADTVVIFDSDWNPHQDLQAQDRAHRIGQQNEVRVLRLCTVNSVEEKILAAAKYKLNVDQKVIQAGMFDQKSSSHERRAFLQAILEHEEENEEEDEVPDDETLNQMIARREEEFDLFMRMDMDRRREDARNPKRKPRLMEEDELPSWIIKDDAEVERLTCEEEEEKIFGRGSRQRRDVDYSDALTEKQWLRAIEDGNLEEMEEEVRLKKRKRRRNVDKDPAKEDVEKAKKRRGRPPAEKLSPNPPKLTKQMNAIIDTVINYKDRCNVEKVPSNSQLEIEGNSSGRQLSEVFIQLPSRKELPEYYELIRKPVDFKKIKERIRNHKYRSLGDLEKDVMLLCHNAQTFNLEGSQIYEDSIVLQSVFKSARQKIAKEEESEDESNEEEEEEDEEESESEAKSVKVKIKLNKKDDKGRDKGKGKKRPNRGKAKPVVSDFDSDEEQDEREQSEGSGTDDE

Take `Cc1ncsc1-c1ccc([C@H](C)NC(=O)[C@@H]2C[C@@H](O)CN2C(=O)[C@@H](c2cc(N3CCC(CN4CCC5(CC4)CC(N4CCO[C@H]([C@@H](C)n6cc(C#Cc7cc(-c8ccccc8O)nnc7N)cn6)C4)C5)CC3)no2)C(C)C)cc1` [Compound 98, (2S,4R)-1-[(2R)-2-{3-[4-({2-[(2S)-2-[(1R)-1-(4-{2-[3-amino-6-(2-hydroxyphenyl)pyridazin-4-yl]ethynyl}-1H-pyrazol-1-yl)ethyl]morpholin-4-yl]-7-azaspiro[3.5]nonan-7-yl}methyl)piperidin-1-yl]-1,2-oxazol-5-yl}-3-methylbutanoyl]-4-hydroxy-N-[(1S)-1-[4-(4-methyl-1,3-thiazol-5-yl)phenyl]ethyl]pyrrolidine-2-carboxamide]: the 50% degradation concentration (DC50) (usually the concentration giving 50% degradation) was less than 2.5 nM and the Dmax (in general, the greatest extent of degradation seen) was more than 75%. In the case of `Cc1ncsc1-c1ccc([C@H](C)NC(=O)[C@@H]2C[C@@H](O)CN2C(=O)[C@@H](c2cc(N3CCC(CN4CCC5(CC4)CC(N4CCO[C@@H]([C@@H](C)n6cc(C#Cc7cc(-c8ccccc8O)nnc7N)cn6)C4)C5)CC3)no2)C(C)C)cc1` [Compound 99, (2S,4R)-1-[(2R)-2-{3-[4-({2-[(2R)-2-[(1R)-1-(4-{2-[3-amino-6-(2-hydroxyphenyl)pyridazin-4-yl]ethynyl}-1H-pyrazol-1-yl)ethyl]morpholin-4-yl]-7-azaspiro[3.5]nonan-7-yl}methyl)piperidin-1-yl]-1,2-oxazol-5-yl}-3-methylbutanoyl]-4-hydroxy-N-[(1S)-1-[4-(4-methyl-1,3-thiazol-5-yl)phenyl]ethyl]pyrrolidine-2-carboxamide], the DC50 is less than 2.5 nM and the Dmax was more than 75%. Regarding `Cc1ncsc1-c1ccc([C@H](C)NC(=O)[C@@H]2C[C@@H](O)CN2C(=O)[C@@H](c2cc(N3CCC(CN4CCC(O[C@H]5C[C@H](N6CCC(C(C)n7ncc(-c8cc(-c9ccccc9O)nnc8N)c7F)CC6)C5)CC4)CC3)no2)C(C)C)cc1` (stereo partly drawn) [Compound 100, (2S,4R)-4-hydroxy-N-[(1S)-1-[4-(4-methyl-1,3-thiazol-5-yl)phenyl]ethyl]-1-[(2R)-3-methyl-2-{3-[4-({4-[(1r,3r)-3-[4-(1-{4-[3-amino-6-(2-hydroxyphenyl)pyridazin-4-yl]-5-fluoro-1H-pyrazol-1-yl}ethyl)piperidin-1-yl]cyclobutoxy]piperidin-1-yl}methyl)piperidin-1-yl]-1,2-oxazol-5-yl}butanoyl]pyrrolidine-2-carboxamide], the DC50 is less than 2.5 nM and the Dmax was more than 75%.

As for `Cc1ncsc1-c1ccc([C@H](C)NC(=O)[C@@H]2C[C@@H](O)CN2C(=O)[C@@H](c2cc(N3CCC(CN4CC[C@@H](OC(=O)N5CCN(c6cc(-c7ccccc7O)nnc6N)CC5)[C@@H](F)C4)CC3)no2)C(C)C)cc1` [Compound 101, (3S,4R)-3-fluoro-1-[(1-{5-[(2R)-1-[(2S,4R)-4-hydroxy-2-{[(1S)-1-[4-(4-methyl-1,3-thiazol-5-yl)phenyl]ethyl]carbamoyl}pyrrolidin-1-yl]-3-methyl-1-oxobutan-2-yl]-1,2-oxazol-3-yl}piperidin-4-yl)methyl]piperidin-4-yl 4-[3-amino-6-(2-hydroxyphenyl)pyridazin-4-yl]piperazine-1-carboxylate], the DC50 is less than 2.5 nM and the Dmax was more than 75%. Turning to `Cc1ncsc1-c1ccc([C@H](C)NC(=O)[C@@H]2C[C@@H](O)CN2C(=O)[C@@H](c2cc(N3CCC(CN4CC[C@@H](OC(=O)N5CCN(c6cc(-c7ccccc7O)nnc6N)CC5)[C@H](F)C4)CC3)no2)C(C)C)cc1` [Compound 102, (3R,4R)-3-fluoro-1-[(1-{5-[(2R)-1-[(2S,4R)-4-hydroxy-2-{[(1S)-1-[4-(4-methyl-1,3-thiazol-5-yl)phenyl]ethyl]carbamoyl}pyrrolidin-1-yl]-3-methyl-1-oxobutan-2-yl]-1,2-oxazol-3-yl}piperidin-4-yl)methyl]piperidin-4-yl 4-[3-amino-6-(2-hydroxyphenyl)pyridazin-4-yl]piperazine-1-carboxylate], the DC50 lay in the range of 2.5 to 10 nM and the Dmax was more than 75%. As to `Cc1ncsc1-c1ccc([C@H](C)NC(=O)[C@@H]2C[C@@H](O)CN2C(=O)[C@@H](c2cc(N3CCC(CN4CC[C@H](OC(=O)N5CCN(c6cc(-c7ccccc7O)nnc6N)CC5)[C@H](F)C4)CC3)no2)C(C)C)cc1` [Compound 103, (3R,4S)-3-fluoro-1-[(1-{5-[(2R)-1-[(2S,4R)-4-hydroxy-2-{[(1S)-1-[4-(4-methyl-1,3-thiazol-5-yl)phenyl]ethyl]carbamoyl}pyrrolidin-1-yl]-3-methyl-1-oxobutan-2-yl]-1,2-oxazol-3-yl}piperidin-4-yl)methyl]piperidin-4-yl 4-[3-amino-6-(2-hydroxyphenyl)pyridazin-4-yl]piperazine-1-carboxylate], the DC50 is less than 2.5 nM and the Dmax was more than 75%.

For the compound `Cc1ncsc1-c1ccc([C@H](C)NC(=O)[C@@H]2C[C@@H](O)CN2C(=O)[C@@H](c2cc(N3CCC(CN4CC[C@H](OC(=O)N5CCN(c6cc(-c7ccccc7O)nnc6N)CC5)[C@@H](F)C4)CC3)no2)C(C)C)cc1` [Compound 104, (3S,4S)-3-fluoro-1-[(1-{5-[(2R)-1-[(2S,4R)-4-hydroxy-2-{[(1S)-1-[4-(4-methyl-1,3-thiazol-5-yl)phenyl]ethyl]carbamoyl}pyrrolidin-1-yl]-3-methyl-1-oxobutan-2-yl]-1,2-oxazol-3-yl}piperidin-4-yl)methyl]piperidin-4-yl 4-[3-amino-6-(2-hydroxyphenyl)pyridazin-4-yl]piperazine-1-carboxylate], the DC50 was less than 2.5 nM and the Dmax is more than 75%.

As for `Cc1ncsc1-c1ccc([C@H](C)NC(=O)[C@@H]2C[C@@H](O)CN2C(=O)[C@@H](c2cc(N3CCC(CN4CCC(O[C@H]5C[C@H](N6CCC(Cc7cnn(-c8cc(-c9ccccc9O)nnc8N)c7)CC6)C5)CC4)CC3)no2)C(C)C)cc1` [Compound 105, (2S,4R)-4-hydroxy-N-[(1S)-1-[4-(4-methyl-1,3-thiazol-5-yl)phenyl]ethyl]-1-[(2R)-3-methyl-2-{3-[4-({4-[(1r,3r)-3-[4-({1-[3-amino-6-(2-hydroxyphenyl)pyridazin-4-yl]-1H-pyrazol-4-yl}methyl)piperidin-1-yl]cyclobutoxy]piperidin-1-yl}methyl)piperidin-1-yl]-1,2-oxazol-5-yl}butanoyl]pyrrolidine-2-carboxamide], the half-maximal degradation concentration (DC50) is less than 2.5 nM and the Dmax is more than 75%. As for `CC(C)[C@@H](C(=O)N1C[C@H](O)C[C@H]1C(=O)N[C@@H](C)c1ccc(-c2ccnn2C)cc1)c1cc(N2CCC(CN3CCC4(CC3)CC(N3CCO[C@@H](CN5C6CCC5CN(c5cc(-c7ccccc7O)nnc5N)C6)C3)C4)CC2)no1` [Compound 106, (2S,4R)-1-[(2R)-2-{3-[4-({2-[(2R)-2-({3-[3-amino-6-(2-hydroxyphenyl)pyridazin-4-yl]-3,8-diazabicyclo[3.2.1]octan-8-yl}methyl)morpholin-4-yl]-7-azaspiro[3.5]nonan-7-yl}methyl)piperidin-1-yl]-1,2-oxazol-5-yl}-3-methylbutanoyl]-4-hydroxy-N-[(1S)-1-[4-(1-methyl-1H-pyrazol-5-yl)phenyl]ethyl]pyrrolidine-2-carboxamide], the DC50 was less than 2.5 nM and the Dmax is more than 75%. `Cc1ncsc1-c1ccc([C@H](C)NC(=O)[C@@H]2C[C@@H](O)CN2C(=O)[C@@H](c2cc(N3CCN(C(=O)[C@H]4C[C@H](Oc5cc(N6C7CCC6CN(c6cc(-c8ccccc8O)nnc6N)C7)ccn5)C4)CC3)no2)C(C)C)cc1` [Compound 107, (2S,4R)-4-hydroxy-N-[(1S)-1-[4-(4-methyl-1,3-thiazol-5-yl)phenyl]ethyl]-1-[(2R)-3-methyl-2-(3-{4-[(1r,3r)-3-[(4-{3-[3-amino-6-(2-hydroxyphenyl)pyridazin-4-yl]-3,8-diazabicyclo[3.2.1]octan-8-yl}pyridin-2-yl)oxy]cyclobutanecarbonyl]piperazin-1-yl}-1,2-oxazol-5-yl)butanoyl]pyrrolidine-2-carboxamide] showed a 50% degradation concentration (DC50) not below 30 nM. On to `Cc1ncsc1-c1ccc([C@H](C)NC(=O)[C@@H]2C[C@@H](O)CN2C(=O)[C@@H](c2cc(N3CCC(OC4CCN(C[C@H]5C[C@@H](N6CCO[C@@H](CN7C8CCC7CN(c7cc(-c9ccccc9O)nnc7N)C8)C6)C5)CC4)CC3)no2)C(C)C)cc1` [Compound 108, (2S,4R)-1-((2R)-2-(3-(4-((1-(((1S,3s)-3-((2R)-2-((3-(3-amino-6-(2-hydroxyphenyl)pyridazin-4-yl)-3,8-diazabicyclo[3.2.1]octan-8-yl)methyl)morpholino)cyclobutyl)methyl)piperidin-4-yl)oxy)piperidin-1-yl)isoxazol-5-yl)-3-methylbutanoyl)-4-hydroxy-N-((S)-1-(4-(4-methylthiazol-5-yl)phenyl)ethyl)pyrrolidine-2-carboxamide], for which the DC50 was less than 2.5 nM and the Dmax is more than 75%. As to `CC(C)[C@H](C(=O)N1C[C@H](O)C[C@H]1C(=O)N[C@@H](C)c1ccc(-c2ccnn2C)cc1)c1cc(N2CCC(OC3CCN(CC4CC(N5CCC([C@@H](C)n6cc(C#Cc7cc(-c8ccccc8O)nnc7N)cn6)CC5)C4)CC3)CC2)no1` (stereo partly drawn) [Compound 109, (2S,4R)-1-[(2S)-2-{3-[4-({1-[(3-{4-[(1R)-1-(4-{2-[3-amino-6-(2-hydroxyphenyl)pyridazin-4-yl]ethynyl}-1H-pyrazol-1-yl)ethyl]piperidin-1-yl}cyclobutyl)methyl]piperidin-4-yl}oxy)piperidin-1-yl]-1,2-oxazol-5-yl}-3-methylbutanoyl]-4-hydroxy-N-[(1S)-1-[4-(1-methyl-1H-pyrazol-5-yl)phenyl]ethyl]pyrrolidine-2-carboxamide], the DC50 is not below 30 nM.
